Entries after “also recorded” stand apart in the source; their conditions may differ. Like-named read-outs stand apart in the source and are kept apart here. Each block holds one compound with its values, some of them ahead of it.
Key:
retina [1] = experiment: Photopic electroretinogram (ERG) in VGB-treated mice; format: in vivo, BALB/c mice
Description: (§1) ERG were recorded as described previously after the last VGB injection (Duboc et al., 2004). Anesthesia was induced by an intramuscular injection of a solution containing ketamine (100 mg/kg) and xylazine (10 mg/kg). After 10 min adaptation to a […] light intensity, ten recordings were obtained with flash intensity of 10 cdsm^-2 at an interstimulus interval 30s and subsequently averaged. These photopic ERG measurements were performed after 59 days in rats and 29 days in mice.
(§2) Sabril IS Investigator and Peer Review Groups. Epilepsia Vol. 37, 638-642 (1996)).
(§3) Animals were light-adapted for 10 minutes with a background light of 25 cdm^-2. Light flashes were then applied on this background light; the light intensity of the flash was 10 cdsm^-2 for the mouse experiments and for the rats maintained in darkness (Figs. 2, 6) or 25 cdsm^-2 for other experiments (Figs 3, 5). Ten recordings were averaged with an interstimulus interval of 30s.

cone photoreceptors [2] = experiment: Retinal histology quantification in VGB-treated mice (DAPI, PNA, Goα); format: in vivo, BALB/c mice
Description: (§4) Sabril IS Investigator and Peer Review Groups. Epilepsia Vol. 37, 638-642 (1996)). […] The primary antibody added to the solution was incubated for two hours at room temperature. Polyclonal antibodies were directed against VGluT1 (1:2000, Chemicon), rabbit GFAP (1/400, Dako, USA) and mouse cone arrestin (Zhu, X., et al. Mouse cone arrestin expression pattern: light induced translocation in cone photoreceptors. Molecular vision Vol. 8, 462-471 (2002)) (Luminaire junior, LUMIj, 1:20,000). Monoclonal antibodies were directed against Goα (1:2000, Chemicon). […] Inner/outer segments of cone photoreceptors were stained with a peanut lectin (PNA, Sigma) during 12 hours of incubation at 4°C. The dye, diamidiphenyl-indole (DAPI), was added during the final incubation period. […] Following DAPI nuclear staining, the lengths of disorganised retinal areas were measured; GFAP immunostaining was used for detection and quantificationof retinal areas with reactive gliosis. The cone photoreceptor density was calculated following cone arrestin immunostaining (rats) or PNA labelling (mice) to visualise the inner/outer segments of cone photoreceptors; areas with disorganised retinal layering were excluded. Areas with sprouting bipolar cells were quantified following immunolabelling of these cells with the antibody directed against the protein Goα.

cone photoreceptors [3] = experiment: Retinal histology quantification in VGB-treated rats (cone arrestin, GFAP); format: in vivo, Wistar rats Rj Wi IOPS Han
Description: as §4

[4] = rats, VGB 65 days, versus control
Description: VGB was dissolved in 0.9 % NaCl at a concentration of 125 mg/ml. It was administered at 40 mg (125 mg/ml, 0.32 ml) by daily intraperitoneal injection for 45 or 65 days and at 3 mg (60 mg/ml, 0.05 ml) to mice for 29 days (daily dose of about 200 mg/kg in rats and 150 mg/kg in mice). Vitamin B6 (active form) was administered at a dose of 1 mM/kg (solution 154,46 mg/ml) whereas taurine was provided in the drinking water at 0,1 mol/l.
After 65 days of injection, rats were anesthetized for blood sampling. Anesthesia was induced as described above. Under anesthesia an indwelling catheter was placed in the carotid artery. This method allowed obtaining a single, large, good quality blood sample. A 1 mL blood sampling was taken for each rat in a heparinized blood sampler, immediately centrifuged and frozen at -80°C. Automated amino acid ion chromatography (Pasteur Cerba, France) was used for the quantitative determination of total and free amino acids in the samples.
VGB dissolved in 0.9% NaCl was administered at 40mg (125 mg/ml, 0.32ml) to rats by daily intraperitoneal injection for 45 or 65 days and at 3mg (60mg/ml, 0.05ml) to mice for 29 days. […] Taurine supplementation was given in drinking water at a concentration of 0.1M.

[5] = rats (Sills GJ. et al. 2001); cited from earlier work
retinal ganglion cells = settings: young rats, VGB 0.6 mg/day i.p. 25 days, versus control
Description: Animal treatments: Breeds of Wistar rats Rj Wi IOPS Han were purchased from Janvier (Le Genest-St-lsle, France). VGB dissolved in 0.9% NaCl was administered at 0.6mg/jour (6 mg/ml, 0.1ml) to rats by daily intraperitoneal injection for 25 days from age 4 days.
Histology: Animals were anesthetized by intraperitoneal injection (0.8 to 1.2 ml/kg) of a solution containing ketamine (40 mg/ml) and xylazine (4 mg/ml Rompum). They were then perfused first with heaparin 1000Ul/ml in saline solution (0.9% NaCl), then with fixative containing 4% Paraformaldehyde (Merck chemicals ref. : 100496 ) and 0.2% glutaraldehyde (fluka 25%). Eye cups were isolated and fixed overnight at 4°C in 4% (wt/vol) paraformaldehyde in phosphate buffered saline (PBS; 0.01 M, pH 7.4). The tissue was cryoprotected in successive solutions of PBS containing 10%, 20% and 30% sucrose at 4°C, oriented along the dorso-ventral axis and embedded in OCT (Labonord, Villeneuve d'Ascq, France). […]
For quantification, vertical sections along the dorso-ventral axis were selected at the optic nerve. Brn3A -positive retinal ganglion cells were quantified along the complete retinal section. […]

GABA = settings: rats (Neal MJ. et al. 1989; Cubells JF. et al. 1987); cited from earlier work
retina [6] = tested on: retina; design: species or system Wistar rats Rj Wi IOPS Han; settings: rat, in vivo
Description: as §1, §2, §3

[7] = VGB plus taurine versus VGB alone, p<0.001

SMILES: NCCS(=O)(=O)O [taurine, 2-aminoethanesulfonic acid]
photopic ERG amplitude (retina [1]; mouse, in vivo): the difference was no longer statistically significant between controls and vigabatrin plus taurine supplementation
sprouting of bipolar cell dendrites (cone photoreceptors [2]; VGB plus taurine): completely suppressed
cone density (cone photoreceptors [2]; [7]): prevented this decrease in cone density
disorganisation of the outer nuclear layer (areas of retinal disorganisation) (cone photoreceptors [2]; VGB plus taurine versus VGB alone, p<0.001 (Fig. 4B)): smaller areas of retinal disorganisation than mice without supplementation
GFAP immunostaining (cone photoreceptors [3]; [7]): less extensive in animals receiving taurine supplementation than in animals without supplementation
cone segment density (cone photoreceptors [3]; VGB plus taurine versus VGB alone, p<0.05, remained lower than control): greater in the VGB-treated group with taurine supplementation than in animals without supplementation

SMILES: Cc1ncc(COP(=O)(O)O)c(C=O)c1O [vitamin B6, pyridoxal-5'-phosphate]
photopic ERG amplitude (retina [1]; mice, VGB plus vitamin B6 (active form) 1 mM/kg (Fig. 1B)): smaller decrease in photopic ERG than with vigabatrin alone; also recorded: reduced the decrease in photopic ERG amplitude

sprouting of bipolar cell dendrites (cone photoreceptors [2]; VGB alone): observed in VGB-treated mice
density of cone outer and inner segments (cone photoreceptors [2]; VGB alone versus control, p<0.001 (Fig. 4C)): lower densities
GFAP immunostaining (cone photoreceptors [3]; VGB alone): increase in GFAP immunostaining
SMILES: C=CC(N)CCC(=O)O (stereo not drawn) [VGB, 4-amino-5-hexenoic acid]
decrease of taurine level in vigabatrin-treated animals ([4]; p<0.05): 67%
difference (reduction) for methionine ([4]; significant): 22%
reduction of glutamic acid in the blood sample ([4]; statistically significant): 56%
concentration in the retina relative to the brain [5]: five-fold higher
decrease of the number of retinal ganglion cells (retinal ganglion cells): 56%
GABA concentrations in the brain relative to control rats (GABA): two-fold higher
GABA concentrations in the retina relative to control rats (GABA): five-fold higher
photopic ERG amplitude (retina [6]): induced a decrease in the photopic electroretinogram (ERG) measurement

Source: patent EP2163246A1, “Taurine or taurine-like substances for the prevention of the irreversible visual effects of vigabatrin” (INSERM (Institut National de la Santé et de la Recherche …, priority 2008, dated 2010)
